How the values were obtained:
[1] = Growth inhibition of human HCC2998 cells at 10 uM after 48 hrs by SRB assay relative to control; type: functional; settings: HCC 2998, 48 h, read-out: GI
KM12 = assay: Growth inhibition of human KM12 cells at 10 uM after 48 hrs by SRB assay relative to control; type: functional; settings: KM12, 48 h, read-out: GI
M14 = assay: Growth inhibition of human M14 cells at 10 uM after 48 hrs by SRB assay relative to control; type: functional; settings: M14, 48 h, read-out: GI
[2] = Growth inhibition of human UACC62 cells at 10 uM after 48 hrs by SRB assay relative to control; type: functional; settings: UACC-62, 48 h, read-out: GI
[3] = Growth inhibition of human LOXIMVI cells at 10 uM after 48 hrs by SRB assay relative to control; type: functional; settings: LOX IMVI, read-out: GI
Malme-3M = assay: Growth inhibition of human MALME-3M cells at 10 uM after 48 hrs by SRB assay relative to control; type: functional; settings: read-out: GI
[4] = Growth inhibition of human OVCAR3 cells at 10 uM after 48 hrs by SRB assay relative to control; type: functional; settings: OVCAR-3, 48 h, read-out: GI
[5] = Growth inhibition of human OVCAR4 cells at 10 uM after 48 hrs by SRB assay relative to control; type: functional; settings: OVCAR-4, 48 h, read-out: GI
[6] = Growth inhibition of human OVCAR5 cells at 10 uM after 48 hrs by SRB assay relative to control; type: functional; settings: OVCAR-5, 48 h, read-out: GI
A498 = assay: Growth inhibition of human A498 cells at 10 uM after 48 hrs by SRB assay relative to control; type: functional; settings: A498, 48 h, read-out: GI
[7] = Growth inhibition of human RXF393 cells at 10 uM after 48 hrs by SRB assay relative to control; type: functional; settings: RXF 393, 48 h, read-out: GI
[8] = Growth inhibition of human UO31 cells at 10 uM after 48 hrs by SRB assay relative to control; type: functional; settings: UO-31, 48 h, read-out: GI
786-0 = assay: Growth inhibition of human 786-0 cells at 10 uM after 48 hrs by SRB assay relative to control; type: functional; settings: 786-0, 48 h, read-out: GI
[9] = Growth inhibition of human TK10 cells at 10 uM after 48 hrs by SRB assay relative to control; type: functional; settings: TK-10, 48 h, read-out: GI
[10] = Growth inhibition of human DU145 cells at 10 uM after 48 hrs by SRB assay relative to control; type: functional; settings: DU-145, 48 h, read-out: GI
[11] = Growth inhibition of human PC3 cells at 10 uM after 48 hrs by SRB assay relative to control; type: functional; settings: PC-3, 48 h, read-out: GI
[12] = Growth inhibition of human SF295 cells at 10 uM after 48 hrs by SRB assay relative to control; type: functional; settings: SF-295, 48 h, read-out: GI
[13] = Growth inhibition of human SF539 cells at 10 uM after 48 hrs by SRB assay relative to control; type: functional; settings: SF-539, 48 h, read-out: GI
[14] = Growth inhibition of human SNB75 cells at 10 uM after 48 hrs by SRB assay relative to control; type: functional; settings: SNB-75, 48 h, read-out: GI
U-251 = assay: Growth inhibition of human U251 cells at 10 uM after 48 hrs by SRB assay relative to control; type: functional; settings: U-251, 48 h, read-out: GI
MCF7 = assay: Growth inhibition of human MCF7 cells at 10 uM after 48 hrs by SRB assay relative to control; type: functional; settings: MCF7, 48 h, read-out: GI
MDA-MB-231 = assay: Growth inhibition of human MDA-MB-231 cells at 10 uM after 48 hrs by SRB assay relative to control; type: functional; settings: MDA-MB-231, 48 h, read-out: GI
[15] = Growth inhibition of human BT549 cells at 10 uM after 48 hrs by SRB assay relative to control; type: functional; settings: BT-549, 48 h, read-out: GI
T47D = assay: Growth inhibition of human T47D cells at 10 uM after 48 hrs by SRB assay relative to control; type: functional; settings: read-out: GI
Ovis aries = species: Ovis aries; assay: Inhibition of sheep brain tubulin polymerization at 100 uM by DAPI staining-based fluorimetric method
CCRF-CEM = assay: Growth inhibition of human CCRF-CEM cells at 10 uM after 48 hrs by SRB assay relative to control; type: functional; settings: read-out: GI
K562 = assay: Growth inhibition of human K562 cells at 10 uM after 48 hrs by SRB assay relative to control; type: functional; settings: K562, 48 h, read-out: GI
[16] = Growth inhibition of human MOLT4 cells at 10 uM after 48 hrs by SRB assay relative to control; type: functional; settings: MOLT-4, 48 h, read-out: GI
[17] = Growth inhibition of human RPMI8226 cells at 10 uM after 48 hrs by SRB assay relative to control; type: functional; settings: RPMI-8226, 48 h, read-out: GI
SR = assay: Growth inhibition of human SR cells at 10 uM after 48 hrs by SRB assay relative to control; type: functional; settings: read-out: GI
A549 = assay: Growth inhibition of human A549 cells at 10 uM after 48 hrs by SRB assay relative to control; type: functional; settings: A549, 48 h, read-out: GI
EKVX = assay: Growth inhibition of human EKVX cells at 10 uM after 48 hrs by SRB assay relative to control; type: functional; settings: read-out: GI
[18] = Growth inhibition of human HOP62 cells at 10 uM after 48 hrs by SRB assay relative to control; type: functional; settings: HOP-62, 48 h, read-out: GI
[19] = Growth inhibition of human HOP92 cells at 10 uM after 48 hrs by SRB assay relative to control; type: functional; settings: HOP-92, 48 h, read-out: GI
NCI-H226 = assay: Growth inhibition of human NCI-H226 cells at 10 uM after 48 hrs by SRB assay relative to control; type: functional; settings: NCI-H226, 48 h, read-out: GI
NCI-H23 = assay: Growth inhibition of human NCI-H23 cells at 10 uM after 48 hrs by SRB assay relative to control; type: functional; settings: NCI-H23, 48 h, read-out: GI
NCI-H460 = assay: Growth inhibition of human NCI-H460 cells at 10 uM after 48 hrs by SRB assay relative to control; type: functional; settings: NCI-H460, 48 h, read-out: GI
NCI-H522 = assay: Growth inhibition of human NCI-H522 cells at 10 uM after 48 hrs by SRB assay relative to control; type: functional; settings: NCI-H522, 48 h, read-out: GI
[20] = Growth inhibition of human COLO205 cells at 10 uM after 48 hrs by SRB assay relative to control; type: functional; settings: COLO 205, 48 h, read-out: GI
NCI-H322M = assay: Growth inhibition of human NCI-H322M cells at 10 uM after 48 hrs by SRB assay relative to control; type: functional; settings: read-out: GI

SMILES | inhibition of growth at 10 µM [1] [%] | inhibition of growth at 10 µM (KM12) [%] | inhibition of growth at 10 µM (M14) [%] | inhibition of growth at 10 µM [2] [%] | inhibition of growth at 10 µM [3] [%] | inhibition of growth at 10 µM (Malme-3M) [%] | inhibition of growth at 10 µM [4] [%] | inhibition of growth at 10 µM [5] [%] | inhibition of growth at 10 µM [6] [%] | inhibition of growth at 10 µM (A498) [%] | inhibition of growth at 10 µM [7] [%] | inhibition of growth at 10 µM [8] [%] | inhibition of growth at 10 µM (786-0) [%] | inhibition of growth at 10 µM [9] [%] | inhibition of growth at 10 µM [10] [%] | inhibition of growth at 10 µM [11] [%] | inhibition of growth at 10 µM [12] [%] | inhibition of growth at 10 µM [13] [%] | inhibition of growth at 10 µM [14] [%] | inhibition of growth at 10 µM (U-251) [%] | other results
O=C(c1ccc2c(c1)Sc1ccccc1N2)c1c[nH]c2ccccc12 | 64 | 87 | 86 | 46 | 85 | 49 | 100 | 39 | 60 | 92 | 91 | 58 | 50 | 63 | 91 | 74 | 96 | 100 | 100 | 83 | inhibition of growth at 10 µM (MCF7): 80%; inhibition of growth at 10 µM (MDA-MB-231): 54%; inhibition of growth at 10 µM [15]: 69%; inhibition of growth at 10 µM (T47D): 72%; inhibition (Ovis aries): 66%; inhibition of growth at 10 µM (CCRF-CEM): 81%; inhibition of growth at 10 µM (K562): 81%; inhibition of growth at 10 µM [16]: 73%; inhibition of growth at 10 µM [17]: 56%; inhibition of growth at 10 µM (SR): 76%; inhibition of growth at 10 µM (A549): 77%; inhibition of growth at 10 µM (EKVX): 47%; inhibition of growth at 10 µM [18]: 61%; inhibition of growth at 10 µM [19]: 28%; inhibition of growth at 10 µM (NCI-H226): 18%; inhibition of growth at 10 µM (NCI-H23): 68%; inhibition of growth at 10 µM (NCI-H460): 90%; inhibition of growth at 10 µM (NCI-H522): 100%; inhibition of growth at 10 µM [20]: 100%
COc1ccc(C(=O)N2c3ccccc3Sc3ccccc32)c(C(F)(F)F)c1 | 74 | 82 | 98 | 68 | 83 | 40 | 100 | 53 | 55 | 91 | 85 | 60 | 61 | 43 | 86 | 85 | 95 | 100 | 71 | 81 | inhibition of growth at 10 µM (MCF7): 83%; inhibition of growth at 10 µM (MDA-MB-231): 76%; inhibition of growth at 10 µM [15]: 89%; inhibition of growth at 10 µM (T47D): 48%; inhibition (Ovis aries): 80%; inhibition of growth at 10 µM (CCRF-CEM): 78%; inhibition of growth at 10 µM (K562): 100%; inhibition of growth at 10 µM [16]: 85%; inhibition of growth at 10 µM [17]: 86%; inhibition of growth at 10 µM (SR): 84%; inhibition of growth at 10 µM (A549): 75%; inhibition of growth at 10 µM (EKVX): 54%; inhibition of growth at 10 µM [18]: 57%; inhibition of growth at 10 µM [19]: 85%; inhibition of growth at 10 µM (NCI-H226): 87%; inhibition of growth at 10 µM (NCI-H23): 76%; inhibition of growth at 10 µM (NCI-H322M): 47%; inhibition of growth at 10 µM (NCI-H460): 90%; inhibition of growth at 10 µM (NCI-H522): 98%; inhibition of growth at 10 µM [20]: 100%

— ChEMBL document CHEMBL3792297, “Studies on phenothiazines: New microtubule-interacting compounds with phenothiazine A-ring as potent antineoplastic agents” (Bioorg Med Chem, 2016)
